In ChEMBL document CHEMBL1201862, “PubChem BioAssay data set” (2004):
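Where inhibition never reached the appropriate level, the endpoint shown equals the highest concentration tested. Otherwise, values were interpolated linearly from a five-concentration, 48-hour dose response in 96-well plates. GI50 = concentration required for 50% inhibition of growth.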 Calls of active or inactive are those of the source. No stated cut-off is given here; in the data, active = GI50 up to about 1.1 µM and inactive = higher.

How the values were obtained:
Test in all cases: NCI anticancer screen, dose series, 48 h
DMS-114 = test system: DMS-114
IGROV-1 = test system: IGROV-1
HOP-62 = test system: HOP-62
Malme-3M = test system: Malme-3M
SK-MEL-5 = test system: SK-MEL-5
COLO 205 = test system: COLO 205
SN12C = test system: SN12C
EKVX = test system: EKVX
HT-29 = test system: HT-29
SK-OV-3 = test system: SK-OV-3
UO-31 = test system: UO-31
NCI-H460 = test system: NCI-H460
OVCAR-5 = test system: OVCAR-5
UACC-257 = test system: UACC-257
786-0 = test system: 786-0
ACHN = test system: ACHN
CCRF-CEM = test system: CCRF-CEM
SR = test system: SR
PC-3 = test system: PC-3
NCI/ADR-RES = test system: NCI/ADR-RES

Compound | GI50 (DMS-114) | GI50 (IGROV-1) | GI50 (HOP-62) | GI50 (Malme-3M) | GI50 (SK-MEL-5) | GI50 (COLO 205) | GI50 (SN12C) | GI50 (EKVX) | GI50 (HT-29) | GI50 (SK-OV-3) | GI50 (UO-31) | GI50 (NCI-H460) | GI50 (OVCAR-5) | GI50 (UACC-257) | GI50 (786-0) | GI50 (ACHN) | GI50 (CCRF-CEM) | GI50 (SR) | GI50 (PC-3) | GI50 (NCI/ADR-RES)
CC1CCP(=O)(c2ccccc2)CC1 (stereo unspecified) | > 100 µM (inactive) | > 100 µM (inactive) | > 100 µM (inactive) | > 100 µM (inactive) | > 100 µM (inactive) | > 100 µM (inactive) | > 100 µM (inactive) | > 100 µM (inactive) | > 100 µM (inactive) | > 100 µM (inactive) | > 100 µM (inactive) | > 100 µM (inactive) | > 100 µM (inactive) | > 100 µM (inactive) | > 100 µM (inactive) | > 100 µM (inactive) | > 100 µM (inactive) |  |  | 
CN(C(=O)C12C3C4C1C1C2C3C41C(O)C(C)(C)C)C(C)(C)C (stereo unspecified) | > 100 µM (inactive) | > 100 µM (inactive) | > 100 µM (inactive) | > 100 µM (inactive) | > 100 µM (inactive) | > 100 µM (inactive) | > 100 µM (inactive) | > 100 µM (inactive) | > 100 µM (inactive) | > 100 µM (inactive) | > 100 µM (inactive) | > 100 µM (inactive) | > 100 µM (inactive) | > 100 µM (inactive) | > 100 µM (inactive) | > 100 µM (inactive) | > 100 µM (inactive) |  |  | 
CC(=O)NNc1nc(C)c(C(=O)/C=C/c2ccc(Cl)cc2)s1 | > 100 µM (inactive) | > 100 µM (inactive) | > 100 µM (inactive) | > 100 µM (inactive) | > 100 µM (inactive) | > 100 µM (inactive) |  | 57.7 µM (inactive) | > 100 µM (inactive) | > 100 µM (inactive) | > 100 µM (inactive) | > 100 µM (inactive) | > 100 µM (inactive) | > 100 µM (inactive) | > 100 µM (inactive) | > 100 µM (inactive) | > 100 µM (inactive) |  |  | 
CC(C(=O)c1ccccc1)C1(O)C(=O)Nc2ccc(Cl)cc21 (stereo unspecified) | 56.8 µM (inactive) | > 100 µM (inactive) | > 100 µM (inactive) | > 100 µM (inactive) |  | > 100 µM (inactive) | > 100 µM (inactive) | > 100 µM (inactive) | 75.7 µM (inactive) | > 100 µM (inactive) | 0.469 µM (active) | > 100 µM (inactive) | > 100 µM (inactive) | 31.6 µM (inactive) | 40.3 µM (inactive) | > 100 µM (inactive) |  |  |  | 
CCc1cc2c(c3[nH]ccc13)[C@@H](C)C[C@H]2C | 19.9 µM (inactive) | 19.4 µM (inactive) |  | 18.6 µM (inactive) | 16.9 µM (inactive) | 19.9 µM (inactive) | 15.6 µM (inactive) | 20.7 µM (inactive) | 19.7 µM (inactive) | 30.5 µM (inactive) | 18.3 µM (inactive) | 14.9 µM (inactive) |  | 19.9 µM (inactive) | 15 µM (inactive) | 16.7 µM (inactive) | 20.4 µM (inactive) |  |  | 
O=C1Nc2ccccc2/C1=N/NC(=O)c1ccccc1O | 43.4 µM (inactive) |  | 57.3 µM (inactive) | 35.1 µM (inactive) |  | > 100 µM (inactive) | 35.2 µM (inactive) | 68.5 µM (inactive) | 82.2 µM (inactive) | 12.1 µM (inactive) | 28.2 µM (inactive) | 34.8 µM (inactive) | > 100 µM (inactive) | 44 µM (inactive) | 53.3 µM (inactive) | 21.8 µM (inactive) | 33.4 µM (inactive) |  |  | 
FC(F)(F)c1ccc2c(c1)nc(-c1ccc(Cl)cc1)n2CC1CCCN2CCCCC12 (stereo unspecified) |  | 14.4 µM (inactive) | 13.9 µM (inactive) | 15.3 µM (inactive) | 14 µM (inactive) | 11.6 µM (inactive) | 12.9 µM (inactive) | 9.91 µM (inactive) | 4.98 µM (inactive) | 6.7 µM (inactive) | 10.7 µM (inactive) | 16.6 µM (inactive) | 6.41 µM (inactive) | 14.9 µM (inactive) | 13.8 µM (inactive) | 14.8 µM (inactive) | 10.8 µM (inactive) | 11.9 µM (inactive) | 11.6 µM (inactive) | 14.8 µM (inactive)
COc1ccc2c(c1)C(=O)[C@@](Nc1ccc(C=O)cc1)(OC)[C@@](OC)(c1ccc([N+](=O)[O-])cc1)O2 |  | > 10 µM (inactive) | > 10 µM (inactive) | > 10 µM (inactive) | > 10 µM (inactive) | > 10 µM (inactive) | > 10 µM (inactive) | > 10 µM (inactive) | > 10 µM (inactive) | > 10 µM (inactive) | > 10 µM (inactive) | > 10 µM (inactive) | > 10 µM (inactive) | > 10 µM (inactive) | > 10 µM (inactive) | > 10 µM (inactive) | > 10 µM (inactive) | > 10 µM (inactive) | 8.53 µM (inactive) | > 10 µM (inactive)
Cc1occc1C(=S)Nc1ccc(Cl)c(/C=N/OC(C)C)c1 |  | 27.8 µM (inactive) | 25.2 µM (inactive) | 19.8 µM (inactive) | 19.9 µM (inactive) | 16.9 µM (inactive) | 16.8 µM (inactive) | 23 µM (inactive) | 19.3 µM (inactive) | 24.3 µM (inactive) | 19.4 µM (inactive) | 21 µM (inactive) | 21 µM (inactive) | 22 µM (inactive) | 18.5 µM (inactive) | 21.2 µM (inactive) | 18.1 µM (inactive) | 21.1 µM (inactive) | 24.9 µM (inactive) | 22.2 µM (inactive)
COc1ccc(C2Oc3ccc(Cl)cc3C=C2[N+](=O)[O-])cc1 (stereo unspecified) |  | > 100 µM (inactive) | > 100 µM (inactive) | > 100 µM (inactive) | > 100 µM (inactive) | > 100 µM (inactive) | > 100 µM (inactive) | > 100 µM (inactive) | > 100 µM (inactive) | > 100 µM (inactive) | > 100 µM (inactive) | > 100 µM (inactive) | > 100 µM (inactive) | > 100 µM (inactive) | > 100 µM (inactive) | > 100 µM (inactive) | > 100 µM (inactive) | > 100 µM (inactive) | > 100 µM (inactive) | > 100 µM (inactive)
CC(=O)C(C)(C)CCC(C)(C)C(C)=O |  | > 100 µM (inactive) | > 100 µM (inactive) | > 100 µM (inactive) | > 100 µM (inactive) | > 100 µM (inactive) | > 100 µM (inactive) | > 100 µM (inactive) | > 100 µM (inactive) | > 100 µM (inactive) | > 100 µM (inactive) | > 100 µM (inactive) | > 100 µM (inactive) | > 100 µM (inactive) | > 100 µM (inactive) | > 100 µM (inactive) | > 100 µM (inactive) | > 100 µM (inactive) | > 100 µM (inactive) | > 100 µM (inactive)
CC(=O)O[C@H]1C(=O)[C@@]2(C)[C@H]([C@H](OC(=O)c3ccccc3)[C@]3(O)C[C@H](OC(=O)[C@H](O)[C@@H](NC(=O)CC(C)C)c4ccccc4)C(C)=C1C3(C)C)[C@]1(OC(C)=O)CO[C@@H]1C[C@@H]2O |  | 0.00285 µM (active) | 0.0221 µM (active) | 0.0135 µM (active) | 0.00251 µM (active) | 0.00178 µM (active) | 0.00524 µM (active) | 0.428 µM (active) | < 0.001 µM (active) | 0.00433 µM (active) | 2.48 µM (inactive) | 0.00334 µM (active) | 0.226 µM (active) | 0.015 µM (active) | 0.0378 µM (active) | 0.157 µM (active) | 0.00198 µM (active) | 0.00171 µM (active) | 0.00281 µM (active) | > 8.61 µM (inactive)
CNC(=O)N1CCN(C(=O)NC)CCN(C(=O)NC)CC1 |  | > 100 µM (inactive) | > 100 µM (inactive) | > 100 µM (inactive) | > 100 µM (inactive) | > 100 µM (inactive) | > 100 µM (inactive) | > 100 µM (inactive) | > 100 µM (inactive) | > 100 µM (inactive) | > 100 µM (inactive) | > 100 µM (inactive) | > 100 µM (inactive) | > 100 µM (inactive) | > 100 µM (inactive) | > 100 µM (inactive) | > 100 µM (inactive) | > 100 µM (inactive) | > 100 µM (inactive) | > 100 µM (inactive)
C=CCNC(=S)N/C=C(\C#N)C(N)=O |  | > 100 µM (inactive) | > 100 µM (inactive) | > 100 µM (inactive) | > 100 µM (inactive) | > 100 µM (inactive) | > 100 µM (inactive) | > 100 µM (inactive) | > 100 µM (inactive) | > 100 µM (inactive) | > 100 µM (inactive) | > 100 µM (inactive) | > 100 µM (inactive) | > 100 µM (inactive) | > 100 µM (inactive) | > 100 µM (inactive) | > 100 µM (inactive) | > 100 µM (inactive) | > 100 µM (inactive) | > 100 µM (inactive)
C1=C(CC2=C[P+](c3ccccc3)(c3ccccc3)C=C(c3ccccc3)O2)OC(c2ccccc2)=C[P+]1(c1ccccc1)c1ccccc1 |  | 0.184 µM (active) | 0.597 µM (active) | 0.248 µM (active) | 0.293 µM (active) | 0.162 µM (active) | 0.339 µM (active) | 0.44 µM (active) | 0.358 µM (active) | 0.367 µM (active) | 1.56 µM (inactive) | 0.577 µM (active) | 1.04 µM (active) | 0.352 µM (active) | 0.684 µM (active) | 0.644 µM (active) | 0.361 µM (active) | 0.26 µM (active) | 0.337 µM (active) | 14.3 µM (inactive)
